For assay [1], the system named is Kuramochi cells RB-WT. Nature of the assay: IncuCyte Kuramochi cell proliferation assay, RB-WT. The format is cell-based. The following applies: 72 hours, cell count. Put shortly:
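mApple-H2B-labelled Kuramochi cells were treated with a 10-point, half-log series (top 20 µM) and imaged at 0 and 72 h. Fluorescent nuclei were counted, and the 0–72 h fold change was normalized to DMSO wells. GI50 came from dose-response fits.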

The target of assay [2] is CDK2/Cyclin E1 (Homo sapiens, UniProt P24941). Nature of the assay: Caliper LabChip EZ Reader mobility shift assay. The class given is biochemical. Conditions: 2.5 nM CDK2/Cyclin E1(14-475), 100 μM ATP, 30 min preincubation; read-out: Caliper Assay (CDK2/CCNE1): IC50. Here is the method: Inhibition of CDK2/Cyclin E1 activity in the presence of compounds of the present disclosure was evaluated using a Caliper LabChip® EZ Reader mobility shift assay. In the assay, activated CDK2/Cyclin E1 catalyzes the phosphorylation of a fluorescently tagged peptide 5-FAM-QSPKKG-CONH2 (PerkinElmer, FL Peptide 18) which induces a difference in capillary electrophoresis mobility. The peptide substrate and product were measured, and the conversion ratio was used to determine the inhibition (as % activity and IC50 values) of CDK2/Cyclin E1. Reactions contained 50 mM HEPES pH 7.5, 10 mM MgCl2, 1 mM EDTA, 2 mM DTT, 0.01% Brij35, 0.5 mg/mL BSA, 0.1% DMSO, 2.5 nM CDK2/Cyclin E1(14-475), 100 μM ATP, and 1.5 μM fluorescent peptide substrate.
Dose titrations of inhibitors in 100% DMSO were combined with 3.25 nM CDK2/Cyclin E1(14-475) and 130 μM of ATP in reaction buffer. The mixtures were incubated for 30 minutes before the addition of fluorescent peptide substrate to initiate the kinase reaction. The final conditions were 2.5 nM CDK2/Cyclin E1(14-475), 100 μM ATP, and 1.5 μM fluorescent peptide. The reactions were stopped after 100 minutes with the addition of EDTA (6 mM final EDTA concentration). The stopped reactions were analyzed on a Caliper LabChip® EZ Reader 11. The conversion ratios were normalized to yield % activity, plotted against compound concentration, and fit to a four-parameter equation to determine the IC50 for each compound.

Each structure is given as a SMILES string.

Regarding `CC1(C)C[C@@H]1C(=O)N1CC2(CN(C(=O)c3cncs3)C[C@H]2COc2cncc3c(C4CCOCC4)cccc23)C1` [Compound I-23, ((S)-2-((S)-2,2-dimethylcyclopropanecarbonyl)-8-(((8-(tetrahydro-2H-pyran-4-yl)isoquinolin-4-yl)oxy)methyl)-2,6-diazaspiro[3.4]octan-6-yl)(thiazol-5-yl)methanone], the IC50 in assay [1] was > 10 µM; in assay [2], 1 to 10 µM.

With `CC1(C)C[C@@H]1C(=O)N1CC2(CN(C(=O)c3cncs3)C[C@H]2COCc2cccc(C3CCC(OC(F)(F)F)CC3)n2)C1` (stereo partly drawn) [Compound I-24, ((S)-2-((S)-2,2-dimethylcyclopropane-1-carbonyl)-8-(((6-(4-(trifluoromethoxy)cyclohexyl)pyridin-2-yl)methoxy)methyl)-2,6-diazaspiro[3.4]octan-6-yl)(thiazol-5-yl) methanone], the IC50 in assay [1] fell in the range of 5 to 10 µM; in assay [2], 0.01 to 0.1 µM.

`CC1(C)C[C@@H]1C(=O)N1CC2(CN(C(=O)c3cncs3)C[C@H]2COc2nccc3c(C4CCOCC4)cccc23)C1` [Compound I-25, ((S)-2-((S)-2,2-dimethylcyclopropanecarbonyl)-8-(((5-(tetrahydro-2H-pyran-4-yl)isoquinolin-1-yl)oxy)methyl)-2,6-diazaspiro[3.4]octan-6-yl)(thiazol-5-yl)methanone]: the IC50 in assay [1] is > 10 µM; in assay [2], 0.1 to 1 µM.

In the case of `CN(Cc1cccc(C2CCOCC2)n1)C[C@@H]1CN(C(=O)c2cncs2)CC12CN(C(=O)[C@H]1CC1(C)C)C2` [Compound I-26, (2-((S)-2,2-dimethylcyclopropanecarbonyl)-8-((methyl((6-(tetrahydro-2H-pyran-4-yl)pyridin-2-yl)methyl)amino)methyl)-2,6-diazaspiro[3.4]octan-6-yl)(thiazol-5-yl) methanone], the IC50 in assay [1] and in assay [2] was > 10 µM throughout.

Regarding `CC1(C)C[C@@H]1C(=O)N1CC2(CN(C(=O)c3cncs3)C[C@H]2COCc2cc3ccccc3c(C3CCOCC3)n2)C1` [Compound I-28, ((S)-2-((S)-2,2-dimethylcyclopropane-1-carbonyl)-8-(((1-(tetrahydro-2H-pyran-4-yl)isoquinolin-3-yl)methoxy)methyl)-2,6-diazaspiro[3.4]octan-6-yl)(thiazol-5-yl)methanone], the IC50 in assay [1] is > 10 µM; in assay [2], 0.1 to 1 µM.

With `CC1(C)C[C@@H]1C(=O)N1CC2(CN(C(=O)c3cncs3)C[C@H]2COCc2ccn[nH]2)C1` [Compound I-29, ((S)-8-(((1H-pyrazol-5-yl)methoxy)methyl)-2-((S)-2,2-dimethylcyclopropanecarbonyl)-2,6-diazaspiro[3.4]octan-6-yl)(thiazol-5-yl)methanone], the IC50 in assay [1] and in assay [2] was > 10 µM throughout.

With `CC1(C)C[C@@H]1C(=O)N1CC2(CN(C(=O)c3cncs3)C[C@H]2COc2cccc3ccc(C4CCOCC4)nc23)C1` [Compound I-30, ((S)-2-((S)-2,2-dimethylcyclopropanecarbonyl)-8-(((2-(tetrahydro-2H-pyran-4-yl)quinolin-8-yl)oxy)methyl)-2,6-diazaspiro[3.4]octan-6-yl)(thiazol-5-yl)methanone], the IC50 is > 10 µM in assay [1] and 1 to 10 µM in assay [2].

Take `CC1(C)C[C@@H]1C(=O)N1CC2(CN(C(=O)c3cncs3)C[C@H]2COCC2CCCCO2)C1` (stereo partly drawn) [Compound I-32, ((S)-2-((S)-2,2-dimethylcyclopropane-1-carbonyl)-8-(((tetrahydro-2H-pyran-2-yl)methoxy)methyl)-2,6-diazaspiro [3.4]octan-6-yl) (thiazol-5-yl) methanone]: the IC50 in assay [1] and in assay [2] was > 10 µM throughout.

Regarding `CC1(C)C[C@@H]1C(=O)N1CC2(CN(C(=O)c3cncs3)C[C@H]2COCc2cccc(-c3ccc(C(F)(F)F)cc3F)n2)C1` [Compound I-33, ((S)-2-((S)-2,2-dimethylcyclopropane-1-carbonyl)-8-(((6-(2-fluoro-4-(trifluoromethyl)phenyl)pyridin-2-yl)methoxy)methyl)-2,6-diazaspiro[3.4]octan-6-yl)(thiazol-5-yl) methanone], the IC50 fell in the range of 5 to 10 µM in assay [1] and 0.01 to 0.1 µM in assay [2].

Values taken from patent US20260034123A1 (Cedilla Therapeutics, Inc., priority 2022, published 2026).
